In patent US20080199503A1, “Pharmaceutical Compositions Preparation of Peptides, Secreted by the Snake Venom Glands, Particularly of Bothrops Jararaca, Vasopeptidases Inhibitors, Evasins, Their Analogues, Derivatives and Products Associated, Thereof, for Development of Applications and Use in Chronic-Degenerative Diseases” (priority 2002, published 2008):
Where two headings read alike, the source gives them in different places. Square brackets hold non-standard residues; d marks the D form. Peptide text beside a SMILES is read from it. pGlu = O=C1CC[C@@H](C(=O)O)N1

Tests used:
[1] = in vivo; cited from earlier work
[2] = test system: SHR and TGR(mREN2)L27 hypertensive rats blood pressure; assay: Infusion of Evasin 5a in awake hypertensive rats of different strain; type: in vivo, rat; settings: for decrease of the MAP: infusion 900 μg/100 g corporal weight/hour
Text: (§1) One day before the assay, the animals were subjected to a surgery for cannulation of the femoral artery and vein. The rats were anesthetized with ether and placed in dorsal decubitus on a surgical board. A small skin incision was made, thus separating the musculature for locating the femoral vasculonervous bunch. […] After insertion, the cannulas were tied to the bunch using a surgical line. Next, the cannulas were directed subcutaneously with the aid of a trocater to the scapular waist where they were exteriorized and secured using a suture line.
(§2) The blood pressure and the heart rate were recorded one day after the femoral artery and vein cannulation. The assay was conducted with non-anesthetized animals with free movement. The animals pulsed arterial pressure (PAP), the mean arterial pressure (MAP) and heart rate (HR) were monitored by a computer, using a data acquisition system (BIOPAC). The data were collected during all the experiments.
Before the drug administration, the rats PBP, MBP and HR were monitored during 60 minutes. During and after the infusion of the Evasin 5a, 900 μg/100 g corporal weight/hour in NaCl solution 0.9% (n=6), the cardiovascular parameters were registered. The administration of the evasin-5a in both strains produced the same decreased of the MAP 28±2.7 mmHg and 34±0.9 mmHg in the SHR and TGR (mREN2) L27 respectively. However, it was observed that the relevant difference in time duration effect after the infusion interruption was over 6 hours in the SHR and only 1 hour in the TGRs. These differences indicate important variations of the biochemical mechanisms of the Evasins 5a action with different degree for the renin angiotensin system activation.

[3] = target: C-terminal catalytic site of the Angiotensin I converting enzyme (recombinant ACE) (Homo sapiens, UniProt P12821); assay: Inhibition of the C-terminal catalytic site of recombinant ACE (fluorogenic substrate); type: biochemical
Chain of C-terminal catalytic site of the Angiotensin I converting enzyme (recombinant ACE) (P12821 643-1222 limits assumed, species assumed): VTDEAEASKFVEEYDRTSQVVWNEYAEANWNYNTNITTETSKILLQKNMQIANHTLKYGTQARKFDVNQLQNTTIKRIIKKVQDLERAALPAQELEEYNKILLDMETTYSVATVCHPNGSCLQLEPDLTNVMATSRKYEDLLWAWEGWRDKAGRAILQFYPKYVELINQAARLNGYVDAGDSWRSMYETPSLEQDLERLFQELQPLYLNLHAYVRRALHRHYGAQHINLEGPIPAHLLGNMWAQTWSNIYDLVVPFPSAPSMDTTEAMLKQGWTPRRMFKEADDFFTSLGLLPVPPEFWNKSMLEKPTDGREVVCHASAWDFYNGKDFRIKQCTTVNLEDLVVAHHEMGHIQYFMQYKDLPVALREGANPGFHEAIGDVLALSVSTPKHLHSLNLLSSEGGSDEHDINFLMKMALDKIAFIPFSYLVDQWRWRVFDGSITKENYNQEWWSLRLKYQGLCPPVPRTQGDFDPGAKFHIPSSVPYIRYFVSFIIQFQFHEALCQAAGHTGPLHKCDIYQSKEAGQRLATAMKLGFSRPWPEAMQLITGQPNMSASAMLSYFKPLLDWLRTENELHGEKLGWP
Experimental: (§3) The fractions from purification were submitted to mass spectrometry analysis to conforming the Evasins molar mass after purification. • The enzyme assays for the recombinant ACE inhibition were conducted using the substrate Mca-Ala-Ser-Asp-Lys-DpaOH, at 25° C., in a 50 mM Hepes buffer (pH 6.8), 200 mM NaCl and […] ZnCl2.

[4] = test system: anesthetized normotensive rats (WKY) blood pressure; assay: Potentiation of the bradykinin hypotensive effect on anesthetized rat blood pressure; type: in vivo; settings: for Bk potentiation(%): hypotension increase of a single bradykinin dose after 200 nmol of potentiator i.v., anesthetized rats; for Duration time: time to reduce the potentiating effect by 50%, 200 nmol/rat i.v., unit not given, minutes
Experimental: The potentiating activity of the bradykinin hypotensive effect was tested in anesthetized rats. Normotensive male rats (WKY) were anesthetized using pentobarbital sodium (Hypnol® Cristália, 50 mg/kg, intraperitoneal) and placed on a controlled-temperature board for maintaining the body temperature between 36.5° C. and 37° C. A polygraph coupled to a physiological transducer was used. The blood pressure ranging values were obtained by integrating the areas limited by the baseline pressure and comparing them to the values obtained from control assays. In in vivo assays, the potentiating activity of Evasins on the hypotensive effect of bradykinin on anesthetized rat blood pressure was observed. Two parameters were determined for comparison of the potentiating effects of bradykinin on the anesthetized rat blood pressure (n=5):
1) Intensity of the potentiating effect of the hypotensive activity of bradykinin on the anesthetized rats blood pressure: This value was defined as the hypotension percentage (%) increase caused by a single dose of bradykinin obtained after the infusion of 200 nmol of potentiator. 2) Potentiating effect length: Time required to reduce the potentiating effect on a single dose of bradykinin by 50%.

[5] = test system: awake hypertensive rat blood pressure; assay: Blood pressure of awake hypertensive rat, free versus cyclodextrin-encapsulated Evasin; type: in vivo; settings: bolus injection, 0.071 nmol/100 g of body weight, awake hypertensive rats
Text: as §1, with “This example describes the inclusion compound administration effect between the Evasin-5a and hydroxiprolil-[…]-cyclodextrina BPβCD) on the blood pressure of the hypertensive rats. One” for “One”
as §2
Before the drug administration, the rats PBP, MBP and HR were monitored during 60 minutes. After the bolus injection of Evasin in a total volume of 0.2 mL (NaCl 0.9% solution), the resulting hypotensive effect and the effect length were monitored. […]

[6] = target: N-terminal catalytic site of the Angiotensin I converting enzyme (recombinant ACE) (Homo sapiens, UniProt P12821); assay: Inhibition of the N-terminal catalytic site of recombinant ACE (fluorogenic substrate); type: biochemical
Chain of N-terminal catalytic site of the Angiotensin I converting enzyme (recombinant ACE) (P12821 40-624 limits assumed, species assumed): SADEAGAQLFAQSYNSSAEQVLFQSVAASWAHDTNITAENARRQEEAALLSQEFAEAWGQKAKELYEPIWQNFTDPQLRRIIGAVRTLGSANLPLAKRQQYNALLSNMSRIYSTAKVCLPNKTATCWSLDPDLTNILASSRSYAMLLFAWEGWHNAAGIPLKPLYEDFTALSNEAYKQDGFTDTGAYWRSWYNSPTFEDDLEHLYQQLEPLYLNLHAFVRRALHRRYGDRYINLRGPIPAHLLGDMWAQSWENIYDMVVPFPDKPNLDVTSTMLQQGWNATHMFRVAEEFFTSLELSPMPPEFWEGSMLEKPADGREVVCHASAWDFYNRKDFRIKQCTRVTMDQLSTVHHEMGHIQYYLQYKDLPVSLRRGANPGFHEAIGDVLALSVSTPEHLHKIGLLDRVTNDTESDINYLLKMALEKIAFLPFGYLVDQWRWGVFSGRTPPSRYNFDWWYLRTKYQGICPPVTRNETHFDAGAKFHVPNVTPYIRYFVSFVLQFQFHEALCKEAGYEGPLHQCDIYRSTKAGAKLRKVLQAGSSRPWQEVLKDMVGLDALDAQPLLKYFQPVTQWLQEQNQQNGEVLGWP
Experimental: as §3

[7] = test system: non anesthetized hypertensive rat blood pressure; assay: Blood pressure of non anesthetized hypertensive rat, i.v. bolus of Evasin; type: in vivo; settings: 70 nmol/100 g of body weight, non-anesthetized hypertensive rats
Text: as §1, with “suture line. The arterial cannula was used for recording the cardiovascular parameters and the venous cannula for administering the drugs.” for “suture line.”
as §2, with “The rats” for “The animals”
Before the drug administration, the rats PBP, MBP and HR were monitored. After the bolus injection of Evasin in a total volume of 0.2 mL (NaCl 0.9% solution), the resulting hypotensive effect and the effect length were monitored. In this assay, standard doses of each peptide (70 nmol/100 g of body weight) were tested (n=4). […] Evasin-5a and the Evasin-7a produced a maximum MBP reduction of −19.17±4.36 mmHg and 13.00±2.78 mmHg respectively.

[8] = target: neutral endopeptidase (recombinant NEP) (Homo sapiens, UniProt P08473); assay: Fluorometric assay of recombinant NEP inhibition; type: biochemical
Chain of neutral endopeptidase (recombinant NEP) (P08473 whole entry, species assumed): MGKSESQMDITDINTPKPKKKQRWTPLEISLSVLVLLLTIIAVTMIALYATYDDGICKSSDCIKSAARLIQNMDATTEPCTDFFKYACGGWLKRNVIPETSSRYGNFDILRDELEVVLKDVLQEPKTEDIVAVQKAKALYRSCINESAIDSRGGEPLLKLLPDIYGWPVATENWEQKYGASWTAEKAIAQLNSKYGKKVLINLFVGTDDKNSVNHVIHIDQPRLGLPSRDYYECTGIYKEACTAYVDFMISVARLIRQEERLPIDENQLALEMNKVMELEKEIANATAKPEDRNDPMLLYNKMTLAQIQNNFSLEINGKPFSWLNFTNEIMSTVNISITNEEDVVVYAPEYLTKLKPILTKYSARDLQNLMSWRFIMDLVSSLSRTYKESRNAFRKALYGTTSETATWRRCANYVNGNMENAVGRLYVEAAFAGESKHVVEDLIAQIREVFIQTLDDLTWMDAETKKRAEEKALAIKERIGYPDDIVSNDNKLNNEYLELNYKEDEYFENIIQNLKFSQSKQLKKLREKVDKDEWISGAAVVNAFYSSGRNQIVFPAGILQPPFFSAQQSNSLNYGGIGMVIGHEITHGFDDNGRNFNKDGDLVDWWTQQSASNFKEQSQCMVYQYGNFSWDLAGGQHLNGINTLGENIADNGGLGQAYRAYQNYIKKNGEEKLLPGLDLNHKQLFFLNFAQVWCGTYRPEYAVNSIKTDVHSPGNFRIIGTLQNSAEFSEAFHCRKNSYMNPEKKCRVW
Experimental: The fluorometric assays for the recombinant NEP inhibition were conducted using the substrate Abz-RL-EDDnp in a 50 mM Tris-HCl buffer, pH 7.5, at 37° C. […] The Evasins were pre-incubated with the enzyme before the substrate addition.
The inhibition constants (Ki) values were determined by means of the ratio of the apparent inhibition constant (Ki(app)) and the substrate Km (Salvesen and Nagase, 1990). In: Proteolytic enzymes a practical aproach, Beynon and Bond Eds Oxford University Press, England, 87-88).

[9] = cited from earlier work
[10] = test system: rostro-ventrolateral medulla of freely moving rats; settings: free (not encapsulated), 25 to 50 ng; cited from earlier work
[11] = recombinant ACE, substrate Mca-Ala-Ser-Asp-Lys-DpaOH, 25° C., pH 6.8, read-out: ECA - Ki, C-terminal
[12] = recombinant ACE, substrate Mca-Ala-Ser-Asp-Lys-DpaOH, 25° C., pH 6.8, read-out: ECA - Ki, N-terminal
[13] = recombinant NEP, substrate Abz-RL-EDDnp, pH 7.5, 37° C., read-out: NEP - Ki

| Molecule | Ki [3, 11] | Bk potentiation(%) [4] | Duration time [4] | Ki [6, 12] | hypotensive effect length [7] | reduction in the mean blood pressure (maximum) [7] | Ki [8, 13] | also measured |
| --- | --- | --- | --- | --- | --- | --- | --- | --- |
| C[C@H](CS)C(=O)N1CCC[C@H]1C(=O)O [Captopril] |  |  |  |  |  |  |  | drug absorption time when administered alone [1]: 1 h |
| C[C@H](NC(=O)[C@H](Cc1c[nH]c2ccccc12)NC(=O)[C@H](CCCCN)NC(=O)[C@@H]1CCC(=O)N1)C(=O)N1CCC[C@H]1C(=O)O [EVASIN-5a, <EKWAP] ([pGlu]KWAP-OH; C-terminus assumed) | 1280 nM | 102.5% | 10 | 399 nM | 37 min | −19.17±4.36 mmHg | 550 µM | time duration of effect after the infusion interruption ([2]; SHR): over 6 hours; decrease of the MAP ([2]; SHR): 28±2.7 mmHg; decrease of the MAP ([2]; TGR (mREN2) L27): 34±0.9 mmHg; time duration of effect after the infusion interruption ([2]; TGRs): 1 h; effect length [5]: 38 min; maximum hypotensive effect, reduction of MAP [5]: 23±4.2 mmHg |
| CC[C@H](C)[C@H](NC(=O)[C@@H]1CCCN1C(=O)CNC(=O)[C@H](CC(=O)O)NC(=O)[C@@H]1CCC(=O)N1)C(=O)N1CCC[C@H]1C(=O)N1CCC[C@H]1C(=O)O [EVASIN-7a, <EDGPIPP] ([pGlu]DGPIPP-OH; C-terminus assumed) | 40000 nM | 41.8% | 120 | 70000 nM | more than 100 minutes | 13.00±2.78 mmHg | 492 µM |  |
| CC[C@H](C)[C@H](NC(=O)[C@H](CCC(N)=O)NC(=O)[C@@H]1CCCN1C(=O)[C@H](CCCNC(=N)N)NC(=O)[C@@H]1CCCN1C(=O)[C@H](Cc1c[nH]c2ccccc12)NC(=O)[C@@H]1CCC(=O)N1)C(=O)N1CCC[C@H]1C(=O)N1CCC[C@H]1C(=O)O [EVASIN-9a, <EWPRPQIPP] | 1 nM |  |  | 100 nM | 84 min | −27.0±1.50 mmHg | 86 µM | antihypertensive activity, intravenously ([9]; administered intravenously): has an antihypertensive activity; antihypertensive activity, orally ([9]; given orally): inactive |
| CC[C@H](C)[C@H](NC(=O)[C@H](CCC(N)=O)NC(=O)[C@@H]1CCCN1C(=O)[C@H](Cc1c[nH]cn1)NC(=O)[C@@H]1CCCN1C(=O)[C@H](Cc1c[nH]c2ccccc12)NC(=O)[C@H](CC(N)=O)NC(=O)[C@@H]1CCC(=O)N1)C(=O)N1CCC[C@H]1C(=O)N1CCC[C@H]1C(=O)O [EVASIN-10c, <ENWPHPQIPP] ([pGlu]NWPHPQIPP-OH; C-terminus assumed) |  | 195% | 95 |  | 94 min | −29.5±9.50 mmHg |  | Ki [3]: 0.5 nM; selectivity for the C-terminal site ([3]; C-terminal versus N-terminal site of ACE): 400 times; Ki [6]: 200 nM; Ki [8]: 253 µM |
| Ang-(1-7) (DRVYIHP; Angiotensin 1-7; UniProt P01019 25-31, looked up) [free Ang-(1-7), angiotensinergic peptide, not encapsulated] |  |  |  |  |  |  |  | duration of the increase [10]: approximately 10 min; increase of blood pressure [10]: 15 mmHg |
